Like-named read-outs stand apart in the source and are kept apart here.
Tests used:
[1] = system: Purified TDH derived from Cupriavidus necator NBRC 102504; test: Effect of metal ions and inhibitors on TDH activity (residual activity); assay type: biochemical
[2] = system: TDH derived from Cupriavidus necator NBRC 102504 (SEQ ID NO: 1) (CnTDH); test: Substrate specificity of TDH, standard assay; assay type: biochemical; conditions: for Activity of the enzyme with the coenzyme (in words): as coenzyme
Description: L-threonine oxidation activity was determined by measuring coenzyme NAD^+ reduction at 30° C. and 340 nm. The reaction composition consisted of a total volume of 1 mL and contained L-threonine (final concentration 10 mM), NAD^+ (final concentration 2.5 mM), and glycine-KCl—KOH buffer (100 mM, pH 10.0). The measurement of activity began with the addition of the enzyme. One unit (U) of enzymatic activity was defined as the amount of enzyme producing 1 μmol of NADH per minute under standard conditions.
TDH was examined using substrates in the form of various L-amino acids, amino alcohols, and alcohols. […]

[3] = system: CyTDH: TDH from Cytophaga sp. KUC-1; conditions: cited from earlier work
[4] = system: CsTDH: TDH from Clostridium sticklandii; conditions: cited from earlier work
[5] = biological target: PfTDH: TDH from Pyrococcus furiosus (Pyrococcus furiosus, UniProt Q8U259); conditions: cited from earlier work
PfTDH: TDH from Pyrococcus furiosus, sequence (Q8U259 whole entry): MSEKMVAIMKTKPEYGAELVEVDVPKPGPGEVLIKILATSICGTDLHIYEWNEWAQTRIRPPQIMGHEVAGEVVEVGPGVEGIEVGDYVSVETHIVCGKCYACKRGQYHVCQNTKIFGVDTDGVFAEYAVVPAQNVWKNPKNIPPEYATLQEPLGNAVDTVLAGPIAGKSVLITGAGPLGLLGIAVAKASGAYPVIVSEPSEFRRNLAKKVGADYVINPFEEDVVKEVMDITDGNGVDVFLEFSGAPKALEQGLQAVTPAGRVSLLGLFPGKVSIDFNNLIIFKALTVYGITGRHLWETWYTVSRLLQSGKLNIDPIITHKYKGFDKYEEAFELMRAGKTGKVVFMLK

[6] = metal ions final concentration 1 mM, 30° C. for 1 hour, relative to enzyme without additives
[7] = inhibitors final concentration 10 mM, 30° C. for 1 hour
[8] = inhibitors final concentration 10 mM, 30° C. for 1 hour, None = 100
[9] = substrate concentration 10 mM, standard assay conditions, L-threonine = 100
[10] = substrate specificity, L-threonine = 100

Compound: [Cl-].[Cl-].[Zn+2] [ZnCl2]
- Relative activity (residual TDH activity) [1, 6]: 105%

Compound: O=C(O)CN(CCN(CC(=O)O)CC(=O)O)CC(=O)O [EDTA]
- Inhibition of TDH activity (in words) [1, 7]: not inhibited
- Relative activity (%) (residual TDH activity) [1, 8]: 103%

Compound: N[C@@H](Cc1c[nH]c2ccccc12)C(=O)O [L-tryptophan]
- Relative activity (%) CnTDH [2, 9]: 0%
- Relative activity (%) CyTDH [3, 10]: 0%
- Relative activity (%) CsTDH [4, 10]: 0%
- Relative activity (%) PfTDH [5, 10]: 0%

Compound: [Cl-].[Cs+] [CsCl]
- Relative activity (residual TDH activity) [1, 6]: 117%

Compound: N[C@@H](Cc1c[nH]cn1)C(=O)O [L-histidine]
- Relative activity (%) CnTDH [2, 9]: 0%
- Relative activity (%) CyTDH [3, 10]: 0%
- Relative activity (%) CsTDH [4, 10]: 0%
- Relative activity (%) PfTDH [5, 10]: 0%

Compound: [Na+].[Na+].[O]=[Mo](=[O])([O-])[O-] [NaMoO4]
- Relative activity (residual TDH activity) [1, 6]: 113%

Compound: [Cl][Al]([Cl])[Cl] [AlCl3]
- Relative activity (residual TDH activity) [1, 6]: 118%

Compound: O=S(=O)([O-])[O-].[Zn+2] [ZnSO4]
- Relative activity (residual TDH activity) [1, 6]: 109%

Compound: [Cl][Fe][Cl] [FeCl2]
- Relative activity (residual TDH activity) [1, 6]: 68%

Compound: NCCCC[C@H](N)C(=O)O [L-lysine]
- Relative activity (%) CnTDH [2, 9]: 0%
- Relative activity (%) CyTDH [3, 10]: 0%
- Relative activity (%) CsTDH [4, 10]: 0%
- Relative activity (%) PfTDH [5, 10]: 0%

Compound: NCCC[C@H](N)C(=O)O [L-ornithine]
- Relative activity (%) CnTDH [2, 9]: 0%
- Relative activity (%) PfTDH [5]: 0%

Compound: [N-]=[N+]=[N-].[Na+] [NaN3]
- Relative activity (%) (residual TDH activity) [1]: 12%

Compound: Calcium pantothenate
- Inhibition of TDH activity (in words) [1, 7]: slight inhibiting
- Relative activity (%) (residual TDH activity) [1, 8]: 95.0%

Compound: OCCS [β-mercaptoethanol]
- Inhibition of TDH activity (in words) [1, 7]: Nor did the reducing agents β-mercaptoethanol and DTT inhibit enzymatic activity
- Relative activity (%) (residual TDH activity) [1, 8]: 114%

Compound: C[C@@H](O)[C@H](N)C(=O)O (racemic) [DL-threonine]
- Relative activity (%) CnTDH [2, 9]: 64%

Compound: O=C(O)CI [Iodoacetic acid]
- Relative activity (%) (residual TDH activity) [1]: 48%

Compound: O=C(O)[C@@H]1CCCN1 [L-proline]
- Relative activity (%) CnTDH [2, 9]: 0%
- Relative activity (%) CyTDH [3, 10]: 0%
- Relative activity (%) CsTDH [4, 10]: 0%
- Relative activity (%) PfTDH [5]: 0%

Compound: [Cl][Pb][Cl] [PbCl2]
- Relative activity (residual TDH activity) [1, 6]: 118%

Compound: CCOC(=O)OC(=O)OCC [DEPC]
- Relative activity (%) (residual TDH activity) [1, 8]: 92%

Compound: N[C@@H](Cc1ccccc1)C(=O)O [L-phenylalanine]
- Relative activity (%) CnTDH [2, 9]: 0%
- Relative activity (%) CyTDH [3, 10]: 0%
- Relative activity (%) CsTDH [4, 10]: 0%
- Relative activity (%) PfTDH [5, 10]: 0%

Compound: [Cl][Mn][Cl] [MnCl2]
- Relative activity (residual TDH activity) [1, 6]: 102%

Compound: CCC(C)O (stereo not drawn) [2-Butanol]
- Relative activity (%) CnTDH [2, 9]: 0%
- Relative activity (%) CyTDH [3, 10]: 0%
- Relative activity (%) PfTDH [5]: 0%

Compound: [Ba+2].[Cl-].[Cl-] [BaCl2]
- Relative activity (residual TDH activity) [1, 6]: 113%

Compound: NC(=O)CI [Iodoacetamide]
- Inhibition of TDH activity (in words) [1, 7]: inhibited
- Relative activity (%) (residual TDH activity) [1, 8]: 0.8%

Compound: O=[N+]([O-])[O-].[Ag+] [AgNO3]
- Relative activity (residual TDH activity) [1, 6]: 100%

Compound: N[C@H](CO)C(=O)O [D-serine]
- Relative activity (%) CnTDH [2, 9]: 0%

Compound: CCCCO [1-Butanol]
- Relative activity (%) CnTDH [2, 9]: 0%
- Relative activity (%) PfTDH [5]: 0%

Compound: COS(=O)(=O)[O-].C[n+]1c2ccccc2nc2ccccc21 [PMS, phenazine methosulfate]
- Inhibition of TDH activity (in words) [1, 7]: inhibited
- Relative activity (%) (residual TDH activity) [1, 8]: 0.0%

Compound: NC(=O)CC[C@H](N)C(=O)O [L-glutamine]
- Relative activity (%) CnTDH [2, 9]: 0%
- Relative activity (%) CyTDH [3, 10]: 0%
- Relative activity (%) CsTDH [4, 10]: 0%
- Relative activity (%) PfTDH [5, 10]: 0%

Compound: N[C@@H](CCC(=O)O)C(=O)O [L-glutamic acid]
- Relative activity (%) CnTDH [2, 9]: 0%
- Relative activity (%) CyTDH [3, 10]: 0%
- Relative activity (%) CsTDH [4, 10]: 0%
- Relative activity (%) PfTDH [5, 10]: 0%

Compound: CC[C@H](C)[C@H](N)C(=O)O [L-isoleucine]
- Relative activity (%) CnTDH [2, 9]: 0%
- Relative activity (%) CyTDH [3, 10]: 0%
- Relative activity (%) CsTDH [4, 10]: 0%
- Relative activity (%) PfTDH [5, 10]: 0%

Compound: O=C(O)c1cc[c]([Hg][Cl])cc1 [PCMB]
- Relative activity (%) (residual TDH activity) [1, 8]: 6.2%

Compound: O=S(=O)([O-])[O-].[Cu+2] [CuSO4]
- Relative activity (residual TDH activity) [1, 6]: 115%

Compound: [Cl][Hg][Cl] [HgCl2]
- Relative activity (%) (residual TDH activity) [1]: 23%

Compound: CC(C)[C@H](N)C(=O)O [L-valine]
- Relative activity (%) CnTDH [2, 9]: 0%
- Relative activity (%) CyTDH [3, 10]: 0%
- Relative activity (%) CsTDH [4, 10]: 0%
- Relative activity (%) PfTDH [5, 10]: 0%

Compound: NC(=O)c1ccc[n+]([C@@H]2O[C@H](COP(=O)([O-])OP(=O)(O)OC[C@H]3O[C@@H](n4cnc5c(N)ncnc54)[C@H](O)[C@@H]3O)[C@@H](O)[C@H]2O)c1 [NAD^+, nicotinamide adenine dinucleotide]
- Activity of the enzyme with the coenzyme (in words) [2]: showed the activity

Compound: C[C@@H](O)[C@@H](N)C(=O)O [D-allothreonine]
- Relative activity (%) CnTDH [2, 9]: 0%
- Relative activity (%) CyTDH [3, 10]: 0%
- Relative activity (%) CsTDH [4, 10]: 0%

Compound: CoCl2
- Relative activity (residual TDH activity) [1]: 115%

Compound: [Cl][Cr]([Cl])[Cl] [CrCl3]
- Relative activity (residual TDH activity) [1, 6]: 110%

Compound: CC(O)CCO (stereo not drawn) [1,3-Butanediol]
- Relative activity (%) CnTDH [2, 9]: 0%
- Relative activity (%) PfTDH [5, 10]: 0%

Compound: O=S(=O)([O-])[O-].[Mg+2] [MgSO4]
- Relative activity (residual TDH activity) [1, 6]: 112%

Compound: CCC(O)CO (stereo not drawn) [1,2-Butanediol]
- Relative activity (%) CnTDH [2, 9]: 0%
- Relative activity (%) PfTDH [5, 10]: 52%

Compound: CC(O)C(C)O (stereo not drawn) [2,3-Butanediol]
- Relative activity (%) CnTDH [2, 9]: 0%
- Relative activity (%) PfTDH [5, 10]: 94%

Compound: NC(=O)C[C@H](N)C(=O)O [L-asparagine]
- Relative activity (%) CnTDH [2, 9]: 0%
- Relative activity (%) CyTDH [3, 10]: 0%
- Relative activity (%) CsTDH [4, 10]: 0%
- Relative activity (%) PfTDH [5, 10]: 0%

Compound: O[C@@H](CS)[C@@H](O)CS [DTT]
- Inhibition of TDH activity (in words) [1, 7]: Nor did the reducing agents β-mercaptoethanol and DTT inhibit enzymatic activity
- Relative activity (%) (residual TDH activity) [1, 8]: 125%

Compound: NCCS(=O)(=O)O [Taurine]
- Relative activity (%) CnTDH [2, 9]: 0%

Compound: [Cl-].[Cl-].[Mg+2] [MgCl2]
- Relative activity (residual TDH activity) [1, 6]: 112%

Compound: [Cl][Ni][Cl] [NiCl2]
- Relative activity (residual TDH activity) [1, 6]: 119%

Compound: O=S(=O)([O-])[O-].[Mn+2] [MnSO4]
- Relative activity (residual TDH activity) [1, 6]: 114%

Compound: N=C(N)NCCC[C@H](N)C(=O)O [L-arginine]
- Relative activity (%) CnTDH [2]: 0%
- Relative activity (%) CyTDH [3]: 0%
- Relative activity (%) CsTDH [4]: 0%
- Relative activity (%) PfTDH [5]: 0%

Compound: CCC(N)CO (racemic) [DL-2-amino1-butanol]
- Relative activity (%) CnTDH [2, 9]: 0%

Compound: [Ca+2].[Cl-].[Cl-] [CaCl2]
- Relative activity (residual TDH activity) [1, 6]: 109%

Compound: CCN1C(=O)C=CC1=O [NEM]
- Inhibition of TDH activity (in words) [1, 7]: inhibited
- Relative activity (%) (residual TDH activity) [1, 8]: 0.0%

Compound: [Cl][Sn][Cl] [SnCl2]
- Relative activity (residual TDH activity) [1, 6]: 84%

Compound: O=C(O)CN(CCOCCOCCN(CC(=O)O)CC(=O)O)CC(=O)O [EGTA]
- Inhibition of TDH activity (in words) [1, 7]: not inhibited
- Relative activity (%) (residual TDH activity) [1, 8]: 94%

Compound: [Cl][Cu][Cl] [CuCl2]
- Relative activity (residual TDH activity) [1, 6]: 117%

Compound: CC(=O)C(C)O (stereo not drawn) [Acetoin]
- Relative activity (%) CnTDH [2, 9]: 0%
- Relative activity (%) CsTDH [4, 10]: 0%
- Relative activity (%) PfTDH [5, 10]: 38%

Compound: NC(=O)c1ccc[n+]([C@@H]2O[C@H](COP(=O)([O-])OP(=O)(O)OC[C@H]3O[C@@H](n4cnc5c(N)ncnc54)[C@H](OP(=O)(O)O)[C@@H]3O)[C@@H](O)[C@H]2O)c1 [NADP^+]
- Activity of the enzyme with the coenzyme (in words) [2]: No activity of the enzyme was observed

Compound: [Cl-].[Li+] [LiCl]
- Relative activity (residual TDH activity) [1, 6]: 109%

Compound: OCC(O)CO [Glycerol]
- Relative activity (%) CnTDH [2, 9]: 0%
- Relative activity (%) PfTDH [5, 10]: 4%

Compound: [Cl][Fe]([Cl])[Cl] [FeCl3]
- Relative activity (residual TDH activity) [1, 6]: 27%

From US8785147B2, “L-threonine analysis method and L-threonine dehydrogenase” (Toyama Prefecture, priority 2010, dated 2014)
